In ChEMBL document CHEMBL3045544, “Synthesis, antimicrobial and antioxidant activities of some new indole derivatives containing pyridopyrimidine and pyrazolopyridine moieties” (Med Chem Res, 2013):
Each block holds one molecule with its values, some of them ahead of it.

Legend:
Aspergillus flavus = assay: Antimicrobial activity against Aspergillus flavus MTCC 1973 assessed as diameter of growth inhibition zone at 500 ug/ml after 72 hr by cup-plate method; format: functional; conditions: MTCC 1973, 72 h, read-out: DIZ
Pseudomonas aeruginosa = assay: Antimicrobial activity against Pseudomonas aeruginosa MTCC 1688 assessed as diameter of growth inhibition zone at 500 ug/ml after 24 hr by cup-plate method; format: functional; conditions: MTCC 1688, 24 h, read-out: DIZ
Escherichia coli = assay: Antimicrobial activity against Escherichia coli MTCC 723 assessed as diameter of growth inhibition zone at 500 ug/ml after 24 hr by cup-plate method; format: functional; conditions: MTCC 723, 24 h, read-out: DIZ
[1] = tested on: Radical scavenging activity; assay: Antioxidant activity assessed as DPPH radical scavenging activity at 25 ug/ml by spectrophotometric analysis; format: functional
Aspergillus niger = assay: Antimicrobial activity against Aspergillus niger MTCC 281 assessed as diameter of growth inhibition zone at 500 ug/ml after 72 hr by cup-plate method; format: functional; conditions: MTCC 281, 72 h, read-out: DIZ
Aspergillus oryzae = assay: Antimicrobial activity against Aspergillus oryzae MTCC 3567 assessed as diameter of growth inhibition zone at 500 ug/ml after 72 hr by cup-plate method; format: functional; conditions: MTCC 3567, 72 h, read-out: DIZ
Klebsiella pneumoniae = assay: Antimicrobial activity against Klebsiella pneumoniae NCTC 13368 assessed as diameter of growth inhibition zone at 500 ug/ml after 24 hr by cup-plate method; format: functional; conditions: NCTC 13368, 24 h, read-out: DIZ
Staphylococcus aureus = assay: Antimicrobial activity against Staphylococcus aureus ATCC 29513 assessed as diameter of growth inhibition zone at 500 ug/ml after 24 hr by cup-plate method; format: functional; conditions: ATCC 29513, 24 h, read-out: DIZ
Aspergillus terreus = assay: Antimicrobial activity against Aspergillus terreus MTCC 1782 assessed as diameter of growth inhibition zone at 500 ug/ml after 72 hr by cup-plate method; format: functional; conditions: MTCC 1782, 72 h, read-out: DIZ
[2] = tested on: Radical scavenging activity; assay: Antioxidant activity assessed as DPPH radical scavenging activity at 50 ug/ml by spectrophotometric analysis; format: functional
[3] = tested on: Radical scavenging activity; assay: Antioxidant activity assessed as DPPH radical scavenging activity at 75 ug/ml by spectrophotometric analysis; format: functional
[4] = Antioxidant activity assessed as ferric ion reducing activity after 20 min by FRAP assay; format: functional
[5] = tested on: Radical scavenging activity; assay: Antioxidant activity assessed as DPPH radical scavenging activity at 100 ug/ml by spectrophotometric analysis; format: functional
[6] = Metal chelating activity of the compound assessed as inhibition of ferrozine Fe2+ complex formation at 25 to 100 ug/ml after 10 min by spectrophotometric analysis; format: physicochemical

Structure (SMILES): Cc1ccc(-c2cc(-c3c(-c4ccccc4)[nH]c4ccc(C)cc34)c3c(=O)[nH]cnc3n2)cc1
zone of inhibition at 500 µg/mL (Aspergillus flavus): 5 mm
zone of inhibition at 500 µg/mL (Pseudomonas aeruginosa): 10 mm
zone of inhibition at 500 µg/mL (Escherichia coli): 5 mm
Activity [1]: 74.4%
zone of inhibition at 500 µg/mL (Aspergillus niger): 10 mm
zone of inhibition at 500 µg/mL (Aspergillus oryzae): 8 mm
zone of inhibition at 500 µg/mL (Klebsiella pneumoniae): 12 mm
zone of inhibition at 500 µg/mL (Staphylococcus aureus): 8 mm
zone of inhibition at 500 µg/mL (Aspergillus terreus): 10 mm

Structure (SMILES): Nc1n[nH]c2nc(-c3ccccc3)cc(-c3c(-c4ccccc4)[nH]c4ccccc34)c12
zone of inhibition at 500 µg/mL (Aspergillus flavus): 6 mm
zone of inhibition at 500 µg/mL (Pseudomonas aeruginosa): 11 mm
zone of inhibition at 500 µg/mL (Escherichia coli): 10 mm
zone of inhibition at 500 µg/mL (Aspergillus niger): 10 mm
zone of inhibition at 500 µg/mL (Aspergillus oryzae): 12 mm
zone of inhibition at 500 µg/mL (Klebsiella pneumoniae): 10 mm
Activity [2]: 75.5%
zone of inhibition at 500 µg/mL (Staphylococcus aureus): 8 mm
zone of inhibition at 500 µg/mL (Aspergillus terreus): 8 mm

Structure (SMILES): Cc1ccc2[nH]c(-c3ccccc3)c(-c3cc(-c4ccccc4)nc4[nH]nc(N)c34)c2c1
zone of inhibition at 500 µg/mL (Aspergillus flavus): 6 mm
zone of inhibition at 500 µg/mL (Pseudomonas aeruginosa): 5 mm
zone of inhibition at 500 µg/mL (Escherichia coli): 8 mm
Activity [3]: 75.2%
zone of inhibition at 500 µg/mL (Aspergillus niger): 2 mm
zone of inhibition at 500 µg/mL (Aspergillus oryzae): 14 mm
zone of inhibition at 500 µg/mL (Klebsiella pneumoniae): 9 mm
Activity [4]: Dose-dependent effect
zone of inhibition at 500 µg/mL (Staphylococcus aureus): 10 mm
zone of inhibition at 500 µg/mL (Aspergillus terreus): 5 mm
Activity [5]: 68.2%

inhibition (INH) [6]: Active
Structure (SMILES): Cc1ccc(-c2cc(-c3c(-c4ccccc4)[nH]c4ccc(Cl)cc34)c3c(N)n[nH]c3n2)cc1
zone of inhibition at 500 µg/mL (Aspergillus flavus): 5 mm
zone of inhibition at 500 µg/mL (Pseudomonas aeruginosa): 9 mm
zone of inhibition at 500 µg/mL (Escherichia coli): 6 mm
zone of inhibition at 500 µg/mL (Aspergillus niger): 8 mm
zone of inhibition at 500 µg/mL (Aspergillus oryzae): 10 mm
zone of inhibition at 500 µg/mL (Klebsiella pneumoniae): 9 mm
Activity [4]: Dose-dependent effect
zone of inhibition at 500 µg/mL (Staphylococcus aureus): 10 mm
zone of inhibition at 500 µg/mL (Aspergillus terreus): 11 mm

Structure (SMILES): Nc1ncnc2nc(-c3ccc(Cl)cc3)cc(-c3c(-c4ccccc4)[nH]c4ccccc34)c12
zone of inhibition at 500 µg/mL (Aspergillus flavus): 8 mm
zone of inhibition at 500 µg/mL (Pseudomonas aeruginosa): 2 mm
zone of inhibition at 500 µg/mL (Escherichia coli): 8 mm
Activity [1]: 66.8%
zone of inhibition at 500 µg/mL (Aspergillus niger): 10 mm
zone of inhibition at 500 µg/mL (Aspergillus oryzae): 2 mm
zone of inhibition at 500 µg/mL (Klebsiella pneumoniae): 5 mm
zone of inhibition at 500 µg/mL (Staphylococcus aureus): 10 mm
zone of inhibition at 500 µg/mL (Aspergillus terreus): 10 mm

Structure (SMILES): Nc1n[nH]c2nc(-c3ccc(Cl)cc3)cc(-c3c(-c4ccccc4)[nH]c4ccc(Cl)cc34)c12
zone of inhibition at 500 µg/mL (Aspergillus flavus): 8 mm
zone of inhibition at 500 µg/mL (Pseudomonas aeruginosa): 6 mm
zone of inhibition at 500 µg/mL (Escherichia coli): 10 mm
Activity [3]: 73.5%
zone of inhibition at 500 µg/mL (Aspergillus niger): 6 mm
zone of inhibition at 500 µg/mL (Aspergillus oryzae): 10 mm
zone of inhibition at 500 µg/mL (Klebsiella pneumoniae): 11 mm
zone of inhibition at 500 µg/mL (Staphylococcus aureus): 10 mm
zone of inhibition at 500 µg/mL (Aspergillus terreus): 10 mm

Structure (SMILES): Cc1ccc(-c2cc(-c3c(-c4ccccc4)[nH]c4ccc(Cl)cc34)c3c(=O)[nH]cnc3n2)cc1
zone of inhibition at 500 µg/mL (Aspergillus flavus): 8 mm
zone of inhibition at 500 µg/mL (Pseudomonas aeruginosa): 5 mm
zone of inhibition at 500 µg/mL (Escherichia coli): 10 mm
Activity [1]: 61.5%
zone of inhibition at 500 µg/mL (Aspergillus niger): 11 mm
zone of inhibition at 500 µg/mL (Aspergillus oryzae): 10 mm
zone of inhibition at 500 µg/mL (Klebsiella pneumoniae): 11 mm
zone of inhibition at 500 µg/mL (Staphylococcus aureus): 8 mm
zone of inhibition at 500 µg/mL (Aspergillus terreus): 9 mm

Structure (SMILES): O=c1[nH]cnc2nc(-c3ccccc3)cc(-c3c(-c4ccccc4)[nH]c4ccc(Cl)cc34)c12
zone of inhibition at 500 µg/mL (Aspergillus flavus): 9 mm
zone of inhibition at 500 µg/mL (Pseudomonas aeruginosa): 8 mm
zone of inhibition at 500 µg/mL (Escherichia coli): 12 mm
Activity [3]: 74.1%
zone of inhibition at 500 µg/mL (Aspergillus niger): 12 mm
zone of inhibition at 500 µg/mL (Aspergillus oryzae): 12 mm
zone of inhibition at 500 µg/mL (Klebsiella pneumoniae): 14 mm
zone of inhibition at 500 µg/mL (Staphylococcus aureus): 5 mm
zone of inhibition at 500 µg/mL (Aspergillus terreus): 10 mm
Activity [5]: 78.8%

Structure (SMILES): Cc1ccc2[nH]c(-c3ccccc3)c(-c3cc(-c4ccc(Cl)cc4)nc4nc[nH]c(=O)c34)c2c1
zone of inhibition at 500 µg/mL (Aspergillus flavus): 8 mm
zone of inhibition at 500 µg/mL (Pseudomonas aeruginosa): 8 mm
zone of inhibition at 500 µg/mL (Escherichia coli): 8 mm
zone of inhibition at 500 µg/mL (Aspergillus niger): 11 mm
zone of inhibition at 500 µg/mL (Aspergillus oryzae): 8 mm
zone of inhibition at 500 µg/mL (Klebsiella pneumoniae): 6 mm
Activity [2]: 72.7%
zone of inhibition at 500 µg/mL (Staphylococcus aureus): 9 mm
zone of inhibition at 500 µg/mL (Aspergillus terreus): 9 mm

Structure (SMILES): Nc1ncnc2nc(-c3ccccc3)cc(-c3c(-c4ccccc4)[nH]c4ccc(Cl)cc34)c12
zone of inhibition at 500 µg/mL (Aspergillus flavus): 8 mm
zone of inhibition at 500 µg/mL (Pseudomonas aeruginosa): 8 mm
zone of inhibition at 500 µg/mL (Escherichia coli): 9 mm
zone of inhibition at 500 µg/mL (Aspergillus niger): 10 mm
zone of inhibition at 500 µg/mL (Aspergillus oryzae): 10 mm
zone of inhibition at 500 µg/mL (Klebsiella pneumoniae): 5 mm
Activity [2]: 78%
zone of inhibition at 500 µg/mL (Staphylococcus aureus): 10 mm
zone of inhibition at 500 µg/mL (Aspergillus terreus): 5 mm
